ChEMBL document CHEMBL3885861, “Open TG-GATES”

Species on record: Rattus norvegicus
Assay: Open TG-GATES - Regimen: Single
Type: toxicity, organism-based, Sprague-Dawley
Set-up: regimen Single, gender Male, age 6 weeks
Settings: in vivo, po, route gavage; for APTT / Bas / Eos / Fbg / Hb / Ht / Lym / MCH / MCHC / MCV / Mono / Neu / PT / Plat / RBC / Ret / WBC: tissue Blood; for KIDNEY_L / KIDNEY_R / KIDNEY_TOTAL: tissue Kidney; for LIVER: tissue Liver; for A/G / ALP / ALT / AST / BUN / CRE / Ca / Cl / DBIL / GLC / IP / K / LDH / Na / PL / RALB / TBIL / TC / TG / TP / gamma-GTP: tissue Plasma
[1] = 150 mg/kg, 3 h, dose level Middle
[2] = 150 mg/kg, 6 h, dose level Middle
[3] = 150 mg/kg, 9 h, dose level Middle
[4] = 150 mg/kg, 24 h, dose level Middle
[5] = 500 mg/kg, 3 h, dose level High
[6] = 500 mg/kg, 6 h, dose level High
[7] = 500 mg/kg, 9 h, dose level High
[8] = 500 mg/kg, 24 h, dose level High

CN1C(=O)CCS(=O)(=O)C1c1ccc(Cl)cc1 (centres undefined) [CHLORMEZANONE]
TERMINAL_BW [1]: 230 g
APTT [1]: 15.9 s
Bas [1]: 0%
Eos [1]: 1%
Fbg [1]: 314.4 mg/dL
Hb [1]: 13.5 g/dL
Ht [1]: 39.4%
Lym [1]: 77%
MCH [1]: 21.7 pg
MCHC [1]: 34.1%
MCV [1]: 63.6 fL
Mono [1]: 2.8%
Neu [1]: 18.4%
PT [1]: 13.1 s
Plat [1]: 123.1 x10_4/uL
RBC [1]: 620.2 x10_4/ul
Ret [1]: 7.9%
WBC [1]: 84.3 x10_2/uL
KIDNEY_L [1]: 1 g
KIDNEY_R [1]: 1 g
KIDNEY_TOTAL [1]: 1.9 g
LIVER [1]: 10.6 g
A/G [1]: 0.9
ALP [1]: 1400.8 IU/L
ALT [1]: 49.6 IU/L
AST [1]: 75.6 IU/L
BUN [1]: 11.6 mg/dL
CRE [1]: 0.2 mg/dL
Ca [1]: 11.6 mg/dL
Cl [1]: 104.2 meq/L
DBIL [1]: 0.018 mg/dL
GLC [1]: 182.2 mg/dL
IP [1]: 9.5 mg/dL
K [1]: 4.3 meq/L
LDH [1]: 56.8 IU/L
Na [1]: 140.6 meq/L
PL [1]: 157.6 mg/dL
RALB [1]: 2.6 g/dL
TBIL [1]: 0.034 mg/dL
TC [1]: 87 mg/dL
TG [1]: 95.6 mg/dL
TP [1]: 5.6 g/dL
gamma-GTP [1]: 1 IU/L
TERMINAL_BW [2]: 229.6 g
APTT [2]: 17.8 s
Bas [2]: 0%
Eos [2]: 0.6%
Fbg [2]: 295 mg/dL
Hb [2]: 13.8 g/dL
Ht [2]: 41.1%
Lym [2]: 77.8%
MCH [2]: 22.1 pg
MCHC [2]: 33.6%
MCV [2]: 65.8 fL
Mono [2]: 3.8%
Neu [2]: 16.8%
PT [2]: 13.6 s
Plat [2]: 119.1 x10_4/uL
RBC [2]: 624.4 x10_4/ul
Ret [2]: 8.5%
WBC [2]: 70.9 x10_2/uL
KIDNEY_L [2]: 1 g
KIDNEY_R [2]: 1 g
KIDNEY_TOTAL [2]: 2 g
LIVER [2]: 10.1 g
A/G [2]: 0.9
ALP [2]: 1441.2 IU/L
ALT [2]: 41.6 IU/L
AST [2]: 71.8 IU/L
BUN [2]: 9.2 mg/dL
CRE [2]: 0.2 mg/dL
Ca [2]: 11.7 mg/dL
Cl [2]: 105.6 meq/L
DBIL [2]: 0.014 mg/dL
GLC [2]: 184.2 mg/dL
IP [2]: 11.2 mg/dL
K [2]: 4.5 meq/L
LDH [2]: 61.4 IU/L
Na [2]: 142.8 meq/L
PL [2]: 152 mg/dL
RALB [2]: 2.7 g/dL
TBIL [2]: 0.038 mg/dL
TC [2]: 76 mg/dL
TG [2]: 57.2 mg/dL
TP [2]: 5.7 g/dL
gamma-GTP [2]: 1.6 IU/L
TERMINAL_BW [3]: 228.1 g
APTT [3]: 14 s
Bas [3]: 0%
Eos [3]: 0.6%
Fbg [3]: 329.4 mg/dL
Hb [3]: 13.1 g/dL
Ht [3]: 38.8%
Lym [3]: 74.2%
MCH [3]: 21.8 pg
MCHC [3]: 33.8%
MCV [3]: 64.4 fL
Mono [3]: 2.8%
Neu [3]: 21.2%
PT [3]: 13.3 s
Plat [3]: 118.2 x10_4/uL
RBC [3]: 603 x10_4/ul
Ret [3]: 8%
WBC [3]: 89.8 x10_2/uL
KIDNEY_L [3]: 1 g
KIDNEY_R [3]: 1 g
KIDNEY_TOTAL [3]: 1.9 g
LIVER [3]: 9 g
A/G [3]: 0.9
ALP [3]: 1520.8 IU/L
ALT [3]: 38.6 IU/L
AST [3]: 70.6 IU/L
BUN [3]: 9.8 mg/dL
CRE [3]: 0.2 mg/dL
Ca [3]: 11.3 mg/dL
Cl [3]: 105 meq/L
DBIL [3]: 0.02 mg/dL
GLC [3]: 194.6 mg/dL
IP [3]: 11.2 mg/dL
K [3]: 4 meq/L
LDH [3]: 55.8 IU/L
Na [3]: 142.8 meq/L
PL [3]: 150.2 mg/dL
RALB [3]: 2.6 g/dL
TBIL [3]: 0.04 mg/dL
TC [3]: 78.4 mg/dL
TG [3]: 67.2 mg/dL
TP [3]: 5.5 g/dL
gamma-GTP [3]: 1.4 IU/L
TERMINAL_BW [4]: 227.1 g
APTT [4]: 17.4 s
Bas [4]: 0%
Eos [4]: 1%
Fbg [4]: 271.6 mg/dL
Hb [4]: 13.4 g/dL
Ht [4]: 39.4%
Lym [4]: 77%
MCH [4]: 21.9 pg
MCHC [4]: 34.1%
MCV [4]: 64.2 fL
Mono [4]: 3.4%
Neu [4]: 17.8%
PT [4]: 13.3 s
Plat [4]: 123.4 x10_4/uL
RBC [4]: 615.2 x10_4/ul
Ret [4]: 7.5%
WBC [4]: 94.1 x10_2/uL
KIDNEY_L [4]: 1 g
KIDNEY_R [4]: 1 g
KIDNEY_TOTAL [4]: 2 g
LIVER [4]: 10.9 g
A/G [4]: 0.9
ALP [4]: 1673.6 IU/L
ALT [4]: 50.4 IU/L
AST [4]: 82.4 IU/L
BUN [4]: 15.6 mg/dL
CRE [4]: 0.2 mg/dL
Ca [4]: 11.4 mg/dL
Cl [4]: 105.4 meq/L
DBIL [4]: 0.022 mg/dL
GLC [4]: 192 mg/dL
IP [4]: 7.6 mg/dL
K [4]: 4.2 meq/L
LDH [4]: 69.4 IU/L
Na [4]: 142 meq/L
PL [4]: 138.4 mg/dL
RALB [4]: 2.6 g/dL
TBIL [4]: 0.028 mg/dL
TC [4]: 79.8 mg/dL
TG [4]: 119 mg/dL
TP [4]: 5.6 g/dL
gamma-GTP [4]: 1 IU/L
TERMINAL_BW [5]: 225.7 g
APTT [5]: 17.2 s
Bas [5]: 0%
Eos [5]: 1%
Fbg [5]: 308.4 mg/dL
Hb [5]: 13.4 g/dL
Ht [5]: 40.2%
Lym [5]: 72.8%
MCH [5]: 21.9 pg
MCHC [5]: 33.4%
MCV [5]: 65.4 fL
Mono [5]: 3.8%
Neu [5]: 21.8%
PT [5]: 13.2 s
Plat [5]: 113.8 x10_4/uL
RBC [5]: 614.4 x10_4/ul
Ret [5]: 8.6%
WBC [5]: 42.6 x10_2/uL
KIDNEY_L [5]: 1 g
KIDNEY_R [5]: 1 g
KIDNEY_TOTAL [5]: 2 g
LIVER [5]: 9.8 g
A/G [5]: 0.9
ALP [5]: 1556.6 IU/L
ALT [5]: 41.2 IU/L
AST [5]: 63.6 IU/L
BUN [5]: 9.6 mg/dL
CRE [5]: 0.1 mg/dL
Ca [5]: 10.8 mg/dL
Cl [5]: 102 meq/L
DBIL [5]: 0.012 mg/dL
GLC [5]: 212.4 mg/dL
IP [5]: 10.3 mg/dL
K [5]: 3.9 meq/L
LDH [5]: 54.2 IU/L
Na [5]: 140.8 meq/L
PL [5]: 145 mg/dL
RALB [5]: 2.5 g/dL
TBIL [5]: 0.038 mg/dL
TC [5]: 76.4 mg/dL
TG [5]: 63.6 mg/dL
TP [5]: 5.3 g/dL
gamma-GTP [5]: 1 IU/L
TERMINAL_BW [6]: 226.3 g
APTT [6]: 16.7 s
Bas [6]: 0%
Eos [6]: 1%
Fbg [6]: 340.6 mg/dL
Hb [6]: 13.2 g/dL
Ht [6]: 39.2%
Lym [6]: 72.6%
MCH [6]: 21.2 pg
MCHC [6]: 33.8%
MCV [6]: 62.7 fL
Mono [6]: 2.6%
Neu [6]: 23.4%
PT [6]: 13.6 s
Plat [6]: 111.4 x10_4/uL
RBC [6]: 625.4 x10_4/ul
Ret [6]: 8.1%
WBC [6]: 28.5 x10_2/uL
KIDNEY_L [6]: 0.9 g
KIDNEY_R [6]: 0.9 g
KIDNEY_TOTAL [6]: 1.9 g
LIVER [6]: 9.9 g
A/G [6]: 0.9
ALP [6]: 1317.4 IU/L
ALT [6]: 44 IU/L
AST [6]: 66.8 IU/L
BUN [6]: 8 mg/dL
CRE [6]: 0.1 mg/dL
Ca [6]: 10.8 mg/dL
Cl [6]: 101.2 meq/L
DBIL [6]: 0.006 mg/dL
GLC [6]: 218.4 mg/dL
IP [6]: 10.6 mg/dL
K [6]: 3.6 meq/L
LDH [6]: 56.4 IU/L
Na [6]: 139.6 meq/L
PL [6]: 160 mg/dL
RALB [6]: 2.5 g/dL
TBIL [6]: 0.03 mg/dL
TC [6]: 93.2 mg/dL
TG [6]: 39.6 mg/dL
TP [6]: 5.4 g/dL
gamma-GTP [6]: 1 IU/L
TERMINAL_BW [7]: 229 g
APTT [7]: 16.4 s
Bas [7]: 0%
Eos [7]: 0.6%
Fbg [7]: 317.8 mg/dL
Hb [7]: 13.4 g/dL
Ht [7]: 39.2%
Lym [7]: 68.8%
MCH [7]: 21.9 pg
MCHC [7]: 34.2%
MCV [7]: 64 fL
Mono [7]: 2.8%
Neu [7]: 27.6%
PT [7]: 13.6 s
Plat [7]: 127.7 x10_4/uL
RBC [7]: 613 x10_4/ul
Ret [7]: 8.1%
WBC [7]: 40.7 x10_2/uL
KIDNEY_L [7]: 1 g
KIDNEY_R [7]: 1 g
KIDNEY_TOTAL [7]: 1.9 g
LIVER [7]: 10.1 g
A/G [7]: 0.9
ALP [7]: 1555.8 IU/L
ALT [7]: 39.8 IU/L
AST [7]: 66 IU/L
BUN [7]: 10 mg/dL
CRE [7]: 0.1 mg/dL
Ca [7]: 11 mg/dL
Cl [7]: 100.4 meq/L
DBIL [7]: 0.014 mg/dL
GLC [7]: 255.4 mg/dL
IP [7]: 10.3 mg/dL
K [7]: 3.8 meq/L
LDH [7]: 66.4 IU/L
Na [7]: 139 meq/L
PL [7]: 165.8 mg/dL
RALB [7]: 2.6 g/dL
TBIL [7]: 0.034 mg/dL
TC [7]: 90.6 mg/dL
TG [7]: 89.8 mg/dL
TP [7]: 5.5 g/dL
gamma-GTP [7]: 1.2 IU/L
TERMINAL_BW [8]: 214.2 g
APTT [8]: 21.3 s
Bas [8]: 0%
Eos [8]: 0.6%
Fbg [8]: 258.6 mg/dL
Hb [8]: 14.2 g/dL
Ht [8]: 40.4%
Lym [8]: 73.4%
MCH [8]: 21.7 pg
MCHC [8]: 35.2%
MCV [8]: 61.9 fL
Mono [8]: 4%
Neu [8]: 21.8%
PT [8]: 14.3 s
Plat [8]: 121 x10_4/uL
RBC [8]: 653.6 x10_4/ul
Ret [8]: 7.3%
WBC [8]: 73.2 x10_2/uL
KIDNEY_L [8]: 0.9 g
KIDNEY_R [8]: 0.9 g
KIDNEY_TOTAL [8]: 1.9 g
LIVER [8]: 9.7 g
A/G [8]: 0.8
ALP [8]: 1746 IU/L
ALT [8]: 46.2 IU/L
AST [8]: 89.6 IU/L
BUN [8]: 14.2 mg/dL
CRE [8]: 0.2 mg/dL
Ca [8]: 11.2 mg/dL
Cl [8]: 104.6 meq/L
DBIL [8]: 0.048 mg/dL
GLC [8]: 193.2 mg/dL
IP [8]: 8 mg/dL
K [8]: 3.9 meq/L
LDH [8]: 113 IU/L
Na [8]: 142 meq/L
PL [8]: 146.2 mg/dL
RALB [8]: 2.6 g/dL
TBIL [8]: 0.058 mg/dL
TC [8]: 69.6 mg/dL
TG [8]: 239.2 mg/dL
TP [8]: 5.8 g/dL
gamma-GTP [8]: 1 IU/L
